The results in this text go back to patent US20090137600A1, “Antiplatelet agent and process for producing the same” (priority 2004, published 2009).

A short description of data set [1]: Crystal stability on storage at 25° C. and 0%, 52% or 93% RH for 3 days. It counts as physicochemical. On the set-up: key to Crystal form (change): No: No change; Yes: Some change. As to the method:
Compounds (1a), (1b), and (1c) as well as various salts of Compound (1a) produced in the Examples as described above were stored at 25° C. and at a relative humidity of 0%, 52%, or 93% for 3 days to evaluate change in weight and crystal form. Change in crystal form was measured in the case of fumarate at a low humidity, and in the case of Compound (1a) and its citrate at a high humidity. The salts of Compound (1a) were produced according to the method of Example 3.

In data set [2] the test system is human platelet rich plasma (PRP), aggregation induced by collagen. The data set can be described thus: Suppression of collagen-induced platelet aggregation in human PRP. Format: cell-based. Here is the method:
(§1) After removing the PRP in the upper layer, the lower layer was further centrifuged at 1600 g for 10 minutes to separate the platelet poor plasma (PPP). 1 μL of the solution of Compound (I) or Comparative Examples 1 to 3 was added to 200 μL of PRP, and the mixture was allowed to stand at 37° C. for 2 minutes. Platelet aggregation was then induced by adding 2 μL of collagen to the mixture. Platelet aggregation rate was measured by using PAM-12C (SSR Engineering).

Data set [3] relates to guinea pig platelet rich plasma (PRP), aggregation induced by collagen. The data set can be described thus: Suppression of collagen-induced platelet aggregation in guinea pig PRP. Format: cell-based. To be noted: Cavia porcellus. As to the method: as §1
For the next data set, the target named is T1, COX-1 (Ovis aries, UniProt P05979).
T1 sequence (P05979 25-600): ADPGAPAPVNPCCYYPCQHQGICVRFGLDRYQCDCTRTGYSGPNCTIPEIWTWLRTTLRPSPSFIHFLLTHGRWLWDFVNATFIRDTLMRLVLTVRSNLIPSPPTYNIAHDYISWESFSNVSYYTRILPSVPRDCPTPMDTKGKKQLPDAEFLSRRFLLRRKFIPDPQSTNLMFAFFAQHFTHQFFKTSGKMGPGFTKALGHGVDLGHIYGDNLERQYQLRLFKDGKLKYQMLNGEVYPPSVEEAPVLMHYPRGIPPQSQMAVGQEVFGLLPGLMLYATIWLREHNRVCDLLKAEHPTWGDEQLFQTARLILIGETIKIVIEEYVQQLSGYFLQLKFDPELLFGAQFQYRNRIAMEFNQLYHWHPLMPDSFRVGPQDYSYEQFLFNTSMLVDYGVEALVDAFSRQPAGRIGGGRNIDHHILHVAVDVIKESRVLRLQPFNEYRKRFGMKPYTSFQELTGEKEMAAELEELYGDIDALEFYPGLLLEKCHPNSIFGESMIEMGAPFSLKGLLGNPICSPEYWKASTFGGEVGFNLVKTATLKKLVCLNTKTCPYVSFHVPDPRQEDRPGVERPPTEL
The data set can be described thus: Inhibition of cyclooxygenase-1 (COX inhibitor screening assay kit, PGF2α ELISA). It counts as biochemical. As to conditions: for IC50 for COX-1 relative to IC50 of platelet aggregation suppression: ratio COX-1 IC50 / platelet aggregation IC50. Here is the method:
(§2) Screening assay kit for COX inhibitor (Cayman Chemical Company, Catalog Nos. 560101 and 560121) were used to measure inhibitory activity of each compound for COX-1 and COX-2.
(§3) Reaction buffer, heme, arachidonic acid, SnCl2, EIA buffer, wash buffer, prostaglandin (PG) screening EIA standard, PG screening acetylcholinesterase (AchE) tracer ([…]), and PG screening EIA antiserum were prepared before the measurement.
(§4) The reaction solution containing various concentration of the compound of the Examples and COX-1 or COX-2 was allowed to stand at 37° C. for 10 minutes. 10 μL of arachidonic acid was added, and the reaction solution was allowed to stand at 37° C. for 2 minutes. After the reaction, 50 μL of 1N hydrochloric acid was added to cease the reaction, and 100 μL of SnCl2 solution was added, and the reaction solution was allowed to stand at room temperature for 5 minutes.
(§5) 50 μL of an antiserum (rabbit anti-PGF2α antibody) was added to each well of a 96 well plate which had been coated with mouse anti-rabbit IgG, and to each well was added 50 μL of a 2000-fold dilution of the PGF2α producing reaction solution, and then, 50 μL of the AchE tracer. The reaction mixture was allowed to stand at room temperature for 18 hours. The wells were washed 5 times with the wash buffer to remove the excessive AchE tracer, and 200 μL of Ellman reagent was added. After allowing to stand in a dark room for 60 minutes, the absorbance was measured at 405 nm.
(§6) Standard curve was depicted by using PG screening EIA standard, and amount of the PGF2α produced was determined from the absorbance.

Another data set deals with T2, COX-2 (Homo sapiens, UniProt P35354).
T2 sequence (P35354 18-604): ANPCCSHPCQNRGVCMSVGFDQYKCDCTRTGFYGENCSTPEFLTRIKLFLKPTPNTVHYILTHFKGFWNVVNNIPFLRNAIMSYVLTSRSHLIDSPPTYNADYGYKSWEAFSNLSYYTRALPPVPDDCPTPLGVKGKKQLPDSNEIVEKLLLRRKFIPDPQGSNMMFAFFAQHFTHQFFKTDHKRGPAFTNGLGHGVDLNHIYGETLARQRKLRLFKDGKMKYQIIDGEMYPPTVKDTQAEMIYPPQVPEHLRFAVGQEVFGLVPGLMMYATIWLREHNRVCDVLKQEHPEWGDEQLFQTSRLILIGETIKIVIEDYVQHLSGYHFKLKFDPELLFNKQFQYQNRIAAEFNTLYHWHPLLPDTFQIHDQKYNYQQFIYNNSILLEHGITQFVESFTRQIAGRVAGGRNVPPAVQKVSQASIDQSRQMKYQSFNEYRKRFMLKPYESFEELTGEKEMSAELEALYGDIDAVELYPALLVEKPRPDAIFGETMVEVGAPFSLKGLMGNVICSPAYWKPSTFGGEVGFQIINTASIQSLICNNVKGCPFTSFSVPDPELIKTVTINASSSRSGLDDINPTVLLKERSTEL
Kind of data set: Inhibition of cyclooxygenase-2 (COX inhibitor screening assay kit, PGF2α ELISA). It counts as biochemical. As to conditions: for IC50 for COX-2 relative to IC50 of platelet aggregation suppression: ratio COX-2 IC50 / platelet aggregation IC50. Here is the method:
as §2, §3, §4, §5, §6

The subject of data set [4] is platelet aggregation induced by collagen. Kind of data set: Inhibition of platelet aggregation induced by collagen (general statement). It counts as cell-based. To be noted: species not given.
Data set [5] deals with platelet aggregation induced by collagen in PRP of guinea pig. The data set can be described thus: Evaluation of oral absorption: ex vivo collagen-induced platelet aggregation in PRP of orally dosed guinea pig. To be noted: for ex vivo inhibition of the platelet aggregation by the collagen: general statement, no dose given.
The nature of data set [6]: Solubility in water, JP1 solution and JP2 solution. It counts as physicochemical.
Data set [7] can be described thus: Stability under wet heat, dry heat and beam irradiation. It counts as physicochemical.
The test system of data set [8] is thrombogenesis. Kind of data set: Thrombus model induced by iron chloride. Format: in vivo.
Data set [9] deals with thrombogenesis. Kind of data set: Model of thrombosis induced by high shear stress. It counts as in vivo.
A short description of data set [10]: Safety (general statement).

Entries after “also recorded” stand apart in the source; their conditions may differ. Where two headings read alike, the source gives them in different places.

Regarding `COc1ccc(-n2nc(C(=O)N3CCN(C)CC3)cc2-c2ccccn2)nn1` [Compound (1a), [1-(6-methoxypyridazine-3-yl)-5-(pyridine-2-yl)-1H-pyrazole 3-yl](4-methylpiperazine-1-yl)methanone], the “Crystal form (change)” value was “No^1)” in [1] (0% RH), “No” in data set [1] (52% RH) and “Yes” in data set [1] (93% RH). The figures for the “Weight change (%)” value in [1] (0% RH), in data set [1] (52% RH) and in [1] (93% RH) were −0.41%, 0.41% and 7.99%, respectively. Further, the IC50 is 1.1 to 1.3 µM in data set [2], 0.13 µM in data set [3], 97 µM at COX-1 and greater than 50 µM at COX-2. In addition, the “IC50 for COX-1 relative to IC50 of platelet aggregation suppression” value at COX-1 was 100 fold. The “IC50 for COX-2 relative to IC50 of platelet aggregation suppression” value at COX-2 was 100 fold. Also, the “inhibition of the platelet aggregation induced by collagen” value (from here on “inhibition … by collagen”) in data set [4] is “remarkable inhibition”. Besides, the “ex vivo inhibition of the platelet aggregation by the collagen” value in data set [5] is listed as “strong ex vivo inhibition”. Also, the oral absorbability result in data set [5] was “excellent oral absorption”.
On to Fumarate, for which the “Crystal form (change)” value in [1] (0% RH) is given as “Yes^2)”; in data set [1] (52% RH), “No”; in data set [1] (93% RH), “No”. Besides, the “Weight change (%)” value is given as −5.65% in [1] (0% RH), 1.60% in data set [1] (52% RH) and 0.59% in data set [1] (93% RH).
Consider Maleate, for which the “Crystal form (change)” value in data set [1] (0% RH), in data set [1] (52% RH) and in data set [1] (93% RH) was “No” in each case. In addition, the “Weight change (%)” value in [1] (0% RH) is on record as 0.00%; in [1] (52% RH), 0.40%; in data set [1] (93% RH), 0.39%.
For `COc1ccc(-n2nc(C(=O)N3CCN(C)CC3)cc2-c2ccccn2)nn1` [Compound (1c), [1-(6-methoxypyridazine-3-yl)-5-(pyridine-2-yl)-1H-pyrazole-3-yl] (4-methylpiperazine-1-yl)methanone mono-1-tartrate], the “Crystal form (change)” value in [1] (0% RH), in data set [1] (52% RH) and in [1] (93% RH) was “No” each time. In addition, the results for the “Weight change (%)” value in [1] (0% RH), in data set [1] (52% RH) and in [1] (93% RH) were −0.20%, 0.00% and 0.19%, respectively. Besides, in data set [6], the “solubility in water, JP1 solution and JP2 solution” value is given as “highly soluble”. The “stability under wet heat, dry heat, and beam irradiation” value in [7] is reported as “extremely stable”. In addition, the “inhibition … by collagen” value in data set [4] is reported as “remarkable inhibition”.
For the compound Citrate, the “Crystal form (change)” value is given as “No” in [1] (0% RH), “No” in [1] (52% RH) and “Yes” in data set [1] (93% RH). In addition, the “Weight change (%)” value in [1] (0% RH) is recorded as 0.00%; in data set [1] (52% RH) it was 0.00%; in [1] (93% RH), 2.45%.
As to `COc1ccc(-n2nc(C(=O)N3CCN(C)CC3)cc2-c2ccccn2)nn1.Cl` [Compound (1b), [1-(6-Methoxypyridazine-3-yl)-5-(pyridine-2-yl)-1H-pyrazole-3-yl] (4-methylpiperazine-1-yl)methanone Monohydrochloride], the “Crystal form (change)” value in data set [1] (0% RH) is reported as “No”; in data set [1] (52% RH), “No”; in data set [1] (93% RH), “Yes”. In addition, the entries for the “Weight change (%)” value in [1] (0% RH), in data set [1] (52% RH) and in [1] (93% RH) were 0.20%, 0.58% and 11.54%, respectively. Besides, the half-maximal inhibitory concentration (IC50) was 0.86 µM in data set [2] (Homo sapiens, Platelet); greater than 100 µM on COX-1; greater than 100 µM on COX-2. The “IC50 for COX-1 relative to IC50 of platelet aggregation suppression” value on COX-1 was 100 fold. Besides, the “IC50 for COX-2 relative to IC50 of platelet aggregation suppression” value on COX-2 is listed as 100 fold. Moreover, the “solubility in water, JP1 solution and JP2 solution” value in data set [6] is on record as “good solubility”. Also, in the data set on thrombogenesis [8], the suppression of thrombogenesis result was “remarkable suppression”. Further, the “inhibition of the thrombogenesis” value in the data set with thrombogenesis [9] was “remarkable inhibition”. In [4], the “inhibition … by collagen” value is recorded as “remarkable inhibition”. Also, in data set [10], the safety entry is recorded as “no safety problems”. In addition, the “ex vivo inhibition of the platelet aggregation by the collagen” value in [5] is recorded as “strong ex vivo inhibition”. The “platelet aggregation induced by collagen, ex vivo” value in data set [5] (guinea pig, 10 mg/kg oral, 1 hour after administration, collagen 0.8 μg to 2.5 μg) was “remarkably suppressed”. In addition, the oral absorbability entry in data set [5] (Monohydrochloride) was “excellent oral absorption; also recorded: sufficiently absorbed; also recorded: favorable oral absorbability”.
